Our source for the CC50 and IC50 values is US20110224208A1, “NOVEL INHIBITORS OF FLAVIVIRUS REPLICATION” (KATHOLIEKE UNIVERSITEIT LEUVEN, K.U. LEUVEN R&D, priority 2008, published 2011).

In brackets after ≈: the same amount, converted by molar mass.

A short description of data set [1]: Proliferation of exponentially growing Huh-5-2 cells (MTS method). The following applies: human, CC50, concentration required to inhibit the proliferation of exponentially growing Huh-5-2 cells by 50%; Table 2. The method in brief:
(§1)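 Huh-5-2 cells carrying the luciferase HCV replicon, seeded 24 h, then exposed to serial compound dilutions without G418 for 72 h at 37° C, 5% CO2. Replication read as luciferase luminescence, expressed as percentage of untreated cultures; culture density measured in parallel by MTS.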

In data set [2] the test system is HCV replicon I389luc-ubi-neo/NS3-3'/5.1. Nature of the data set: Anti-HCV replicon assay (luciferase activity) in Huh-5-2 cells. Type of data set: cell-based, Hepatitis C virus. The following applies: Hepatitis C virus, Huh-5-2, 72 h, concentration required to inhibit luciferase activity in the replicon system by 50%. The method in brief:
as §1

Compound `COCCN1C(=O)c2ccccc2C(C(=O)Nc2ccn(C)n2)C1c1cccs1` (stereo not shown) [C180, 2-(2-methoxyethyl)-N-(1-methyl-1H-pyrazol-3-yl)-1-oxo-3-(thiophen-2-yl)-1,2,3,4-tetrahydroisoquinoline-4-carboxamide] returned a half-maximal cytotoxic concentration (CC50) at 72 h in data set [1] of 80.8 µg/mL (≈ 197 µM). In data set [2], this compound registered an IC50 of 34.8 µg/mL (≈ 84.8 µM).
Compound `COCCN1C(=O)c2ccccc2C(C(=O)Nc2ccc(CO)cc2)C1c1cccs1` (stereo not shown) [C181, N-(4-(hydroxymethyl)phenyl)-2-(2-methoxyethyl)-1-oxo-3-(thiophen-2-yl)-1,2,3,4-tetrahydroisoquinoline-4-carboxamide] displayed a 50% cytotoxic concentration (CC50) at 72 h in data set [1] of 79.9 µg/mL (≈ 183 µM). Moreover, the IC50 in data set [2] was 0.25 µg/mL (≈ 0.573 µM).
Take `COCCN1C(=O)c2ccccc2C(C(=O)Nc2cc(-c3ccco3)[nH]n2)C1c1cccs1` (stereo not shown) [C183, N-(5-(furan-2-yl)-1H-pyrazol-3-yl)-2-(2-methoxyethyl)-1-oxo-3-(thiophen-2-yl)-1,2,3,4-tetrahydroisoquinoline-4-carboxamide]: half-maximal cytotoxicity in data set [1] (CC50 at 72 h) was put at 77 µg/mL (≈ 166 µM). In data set [2], this compound yielded an IC50 of 50.2 µg/mL (≈ 109 µM).
The matching figures for `COCCN1C(=O)c2ccccc2C(C(=O)Nc2cc(C(C)(C)C)[nH]n2)C1c1cccs1` (stereo not shown) [C185, N-(5-tert-butyl-1H-pyrazol-3-yl)-2-(2-methoxyethyl)-1-oxo-3-(thiophen-2-yl)-1,2,3,4-tetrahydroisoquinoline-4-carboxamide]: 19 µg/mL (≈ 42 µM) and 10.4 µg/mL (≈ 23 µM).
As to `COCCN1C(=O)c2ccccc2C(C(=O)Nc2ccc3c(c2)COC3)C1c1cccs1` (stereo not shown) [C190, N-(1,3-dihydroisobenzofuran-5-yl)-2-(2-methoxyethyl)-1-oxo-3-(thiophen-2-yl)-1,2,3,4-tetrahydroisoquinoline-4-carboxamide], in data set [1], the CC50 at 72 h was determined as 75.9 µg/mL (≈ 169 µM). The compound further registered an IC50 in data set [2] of 0.14 µg/mL (≈ 0.312 µM).
The corresponding values for `COCCN1C(=O)c2ccccc2C(C(=O)Nc2nc3ccc(F)cc3s2)C1c1cccs1` (stereo not shown) [C199, N-(6-fluorobenzo[d]thiazol-2-yl)-2-(2-methoxyethyl)-1-oxo-3-(thiophen-2-yl)-1,2,3,4-tetrahydroisoquinoline-4-carboxamide] are 5.97 µg/mL (≈ 12.4 µM) and 0.12 µg/mL (≈ 0.249 µM).
Compound `COCCN1C(=O)c2ccccc2C(C(=O)Nc2cccc(-n3cncn3)c2)C1c1cccs1` (stereo not shown) [C200, N-(3-(1H-1,2,4-triazol-1-yl)phenyl)-2-(2-methoxyethyl)-1-oxo-3-(thiophen-2-yl)-1,2,3,4-tetrahydroisoquinoline-4-carboxamide] registered a CC50 at 72 h in data set [1] of 59.4 µg/mL (≈ 125 µM). In data set [2], this compound displayed a 50% inhibitory concentration (IC50) of 0.32 µg/mL (≈ 0.676 µM).
`COCCN1C(=O)c2ccccc2C(C(=O)Nc2nc3ccc(Cl)cc3s2)C1c1cccs1` (stereo not shown) [C202, N-(6-chlorobenzo[d]thiazol-2-yl)-2-(2-methoxyethyl)-1-oxo-3-(thiophen-2-yl)-1,2,3,4-tetrahydroisoquinoline-4-carboxamide] displayed a CC50 at 72 h in data set [1] of 7.89 µg/mL (≈ 15.8 µM). The compound further yielded an IC50 in data set [2] of 0.17 µg/mL (≈ 0.341 µM).
Compound `COCCN1C(=O)c2ccccc2C(C(=O)Nc2ccc(-c3ccn(C)n3)cc2)C1c1cccs1` (stereo not shown) [C203, 2-(2-methoxyethyl)-N-(4-(1-methyl-1H-pyrazol-3-yl)phenyl)-1-oxo-3-(thiophen-2-yl)-1,2,3,4-tetrahydroisoquinoline-4-carboxamide] gave a CC50 at 72 h in data set [1] of 9.4 µg/mL (≈ 19.3 µM). Moreover, the IC50 in data set [2] amounted to 0.019 µg/mL (≈ 0.039 µM).
The corresponding values for `COCCN1C(=O)c2ccccc2C(C(=O)Nc2ccc(-c3nnc(C)o3)cc2)C1c1cccs1` (stereo not shown) [C205, 2-(2-methoxyethyl)-N-(4-(5-methyl-1,3,4-oxadiazol-2-yl)phenyl)-1-oxo-3-(thiophen-2-yl)-1,2,3,4-tetrahydroisoquinoline-4-carboxamide] are 38.8 µg/mL (≈ 79.5 µM) and 0.034 µg/mL (≈ 0.0696 µM).
The corresponding values for `COCCN1C(=O)c2ccccc2C(C(=O)Nc2ccc3c(c2)CC(=O)N3C)C1c1cccs1` (stereo not shown) [C206, 2-(2-methoxyethyl)-N-(1-methyl-2-oxoindolin-5-yl)-1-oxo-3-(thiophen-2-yl)-1,2,3,4-tetrahydroisoquinoline-4-carboxamide] are 52.3 µg/mL (≈ 110 µM) and 3.72 µg/mL (≈ 7.82 µM).
The corresponding values for `COCCN1C(=O)c2ccccc2C(C(=O)n2c(=O)oc3ccc(N)cc32)C1c1cccs1` (stereo not shown) [C207, 5-amino-3-(−2-(2-methoxyethyl)-1-oxo-3-(thiophen-2-yl)-1,2,3,4-tetrahydroisoquinoline-4-carbonyl)benzo[d]oxazol-2(3H)-one] are 72.3 µg/mL (≈ 156 µM) and 27.4 µg/mL (≈ 59.2 µM).
For `COCCN1C(=O)c2ccccc2C(C(=O)Nc2cc(-c3ccccc3)nn2C)C1c1cccs1` (stereo not shown) [C208, 2-(2-methoxyethyl)-N-(1-methyl-3-phenyl-1H-pyrazol-5-yl)-1-oxo-3-(thiophen-2-yl)-1,2,3,4-tetrahydroisoquinoline-4-carboxamide], in data set [1], the CC50 at 72 h was determined as 7.94 µg/mL (≈ 16.3 µM). The IC50 in data set [2] is 0.39 µg/mL (≈ 0.801 µM).
The corresponding values for `COCCN1C(=O)c2ccccc2C(C(=O)Nc2cc(C(=O)OC)n(C)c2)C1c1cccs1` (stereo not shown) [C209, methyl 4-(2-(2-methoxyethyl)-1-oxo-3-(thiophen-2-yl)-1,2,3,4-tetrahydroisoquinoline-4-carboxamido)-1-methyl-1H-pyrrole-2-carboxylate] are 57.8 µg/mL (≈ 124 µM) and 0.11 µg/mL (≈ 0.235 µM).
The corresponding values for `COCCN1C(=O)c2ccccc2C(C(=O)Nc2cccc(Cn3ccnc3)c2)C1c1cccs1` (stereo not shown) [C212, N-(3-((1H-imidazol-1-yl)methyl)phenyl)-2-(2-methoxyethyl)-1-oxo-3-(thiophen-2-yl)-1,2,3,4-tetrahydroisoquinoline-4-carboxamide] are 52.6 µg/mL (≈ 108 µM) and 0.16 µg/mL (≈ 0.329 µM).
The matching figures for `COCCN1C(=O)c2ccccc2C(C(=O)Nc2ccc(C)c(NS(C)(=O)=O)c2)C1c1cccs1` (stereo not shown) [C213, 2-(2-methoxyethyl)-N-(4-methyl-3-(methylsulfonamido)phenyl)-1-oxo-3-(thiophen-2-yl)-1,2,3,4-tetrahydroisoquinoline-4-carboxamide]: > 100 µg/mL and 0.036 µg/mL (≈ 0.0701 µM).
The compound `COCCN1C(=O)c2ccccc2C(C(=O)Nc2ccc(-c3nncn3C)cc2)C1c1cccs1` (stereo not shown) [C214, 2-(2-methoxyethyl)-N-(4-(4-methyl-4H-1,2,4-triazol-3-yl)phenyl)-1-oxo-3-(thiophen-2-yl)-1,2,3,4-tetrahydroisoquinoline-4-carboxamide] registered a CC50 at 72 h in data set [1] of 85.3 µg/mL (≈ 175 µM). Inhibition in data set [2] was half-maximal at 5.29 µg/mL (≈ 10.8 µM) (IC50).
The matching figures for `COCCN1C(=O)c2ccccc2C(C(=O)Nc2ccc(Cn3ccnc3)cc2)C1c1cccs1` (stereo not shown) [C215, N-(4-((1H-imidazol-1-yl)methyl)phenyl)-2-(2-methoxyethyl)-1-oxo-3-(thiophen-2-yl)-1,2,3,4-tetrahydroisoquinoline-4-carboxamide]: 52.9 µg/mL (≈ 109 µM) and 1.04 µg/mL (≈ 2.14 µM).
The matching figures for `COCCN1C(=O)c2ccccc2C(C(=O)Nc2ccc(CN3CCCCC3)cc2)C1c1cccs1` (stereo not shown) [C216, 2-(2-methoxyethyl)-1-oxo-N-(4-(piperidin-1-ylmethyl)phenyl)-3-(thiophen-2-yl)-1,2,3,4-tetrahydroisoquinoline-4-carboxamide]: 10.9 µg/mL (≈ 21.7 µM) and 2.57 µg/mL (≈ 5.1 µM).
The corresponding values for `COCCN1C(=O)c2ccccc2C(C(=O)Nc2ccc(Cn3cncn3)cc2)C1c1cccs1` (stereo not shown) [C217, N-(4-((1H-1,2,4-triazol-1-yl)methyl)phenyl)-2-(2-methoxyethyl)-1-oxo-3-(thiophen-2-yl)-1,2,3,4-tetrahydroisoquinoline-4-carboxamide] are 83.7 µg/mL (≈ 172 µM) and 0.76 µg/mL (≈ 1.56 µM).
